Assay results published in ChEMBL document CHEMBL1909046, “DrugMatrix in vitro pharmacology data”.

What was measured:
[1] = target: T1, Type-2 angiotensin II receptor (Homo sapiens, UniProt P50052); type: cell-based; conditions: cho-k1; also: in other assays of this panel Not Active means under 50% inhibition at 10 µM
T1 sequence (P50052 whole entry): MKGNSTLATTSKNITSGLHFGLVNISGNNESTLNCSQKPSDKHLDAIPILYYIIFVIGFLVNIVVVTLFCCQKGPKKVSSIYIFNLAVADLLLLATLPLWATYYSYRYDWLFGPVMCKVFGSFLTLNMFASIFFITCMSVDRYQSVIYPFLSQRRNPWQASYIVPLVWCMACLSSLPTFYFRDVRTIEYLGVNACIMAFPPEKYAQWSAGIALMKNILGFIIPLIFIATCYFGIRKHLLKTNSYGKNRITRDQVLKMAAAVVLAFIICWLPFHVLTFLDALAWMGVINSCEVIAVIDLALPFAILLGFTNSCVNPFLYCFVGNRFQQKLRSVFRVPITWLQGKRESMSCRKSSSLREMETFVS

[2] = DRUGMATRIX: Calcium Channel Type L, Dihydropyridine radioligand binding (ligand: [3H] Nitrendipine); type: cell membranes, Rattus norvegicus, Wistar, Cerebral cortex, Membrane; conditions: Not Active = under 50% inhibition at 10 µM
[3] = target: T2, C-C chemokine receptor type 4 (Homo sapiens, UniProt P51679); type: cell membranes, Membrane; conditions: chem-1; also: in other assays of this panel Not Active means under 50% inhibition at 10 µM
T2 sequence (P51679 whole entry): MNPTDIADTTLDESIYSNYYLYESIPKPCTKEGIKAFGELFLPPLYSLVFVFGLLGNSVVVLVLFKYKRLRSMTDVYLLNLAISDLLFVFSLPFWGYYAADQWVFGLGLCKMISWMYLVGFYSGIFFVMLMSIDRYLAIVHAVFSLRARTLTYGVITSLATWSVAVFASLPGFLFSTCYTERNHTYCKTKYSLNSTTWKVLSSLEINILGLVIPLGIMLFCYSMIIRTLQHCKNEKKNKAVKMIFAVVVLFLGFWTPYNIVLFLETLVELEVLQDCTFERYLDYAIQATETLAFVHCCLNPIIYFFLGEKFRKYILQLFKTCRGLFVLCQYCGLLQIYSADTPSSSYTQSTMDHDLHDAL

[4] = target: Glycine receptor (Rattus norvegicus, UniProt P22771+P24524+P07727+P20781); type: cell membranes, Wistar, Spinal cord, Membrane; also: in other assays of this panel Not Active means under 50% inhibition at 10 µM
[5] = target: Melanocortin receptor 3 (Homo sapiens, UniProt P41968); type: cell membranes, Membrane; conditions: hek293; also: in other assays of this panel Not Active means under 50% inhibition at 10 µM
Chain of Melanocortin receptor 3 (P41968 whole entry): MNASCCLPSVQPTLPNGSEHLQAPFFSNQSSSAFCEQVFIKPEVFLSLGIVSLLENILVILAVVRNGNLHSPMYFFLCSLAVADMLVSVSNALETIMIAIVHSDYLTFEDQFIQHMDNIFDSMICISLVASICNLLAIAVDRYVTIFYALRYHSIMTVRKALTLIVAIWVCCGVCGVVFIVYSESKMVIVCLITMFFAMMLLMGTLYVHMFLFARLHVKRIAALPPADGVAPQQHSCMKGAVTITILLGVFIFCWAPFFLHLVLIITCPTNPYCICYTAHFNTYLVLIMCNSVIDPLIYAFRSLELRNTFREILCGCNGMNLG

[6] = target: T3, Muscarinic acetylcholine receptor M5 (Homo sapiens, UniProt P08912); type: cell membranes, CHO-K1, Membrane; conditions: cho-k1; also: in other assays of this panel Not Active means under 50% inhibition at 10 µM
T3 sequence (P08912 whole entry): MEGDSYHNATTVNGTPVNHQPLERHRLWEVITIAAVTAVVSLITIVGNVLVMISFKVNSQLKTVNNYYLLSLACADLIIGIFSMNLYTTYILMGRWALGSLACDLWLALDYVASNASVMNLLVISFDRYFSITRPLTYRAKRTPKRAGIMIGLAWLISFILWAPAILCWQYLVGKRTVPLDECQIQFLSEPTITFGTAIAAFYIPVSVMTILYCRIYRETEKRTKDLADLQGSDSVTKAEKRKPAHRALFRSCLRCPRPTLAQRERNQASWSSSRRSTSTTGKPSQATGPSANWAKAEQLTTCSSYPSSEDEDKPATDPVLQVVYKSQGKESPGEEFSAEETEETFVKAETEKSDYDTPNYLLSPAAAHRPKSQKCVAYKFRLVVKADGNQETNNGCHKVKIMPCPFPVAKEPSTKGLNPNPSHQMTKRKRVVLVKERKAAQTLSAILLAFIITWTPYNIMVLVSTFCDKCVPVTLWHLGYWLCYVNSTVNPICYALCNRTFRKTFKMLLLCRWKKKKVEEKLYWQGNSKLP

[7] = target: Kappa-type opioid receptor (Homo sapiens, UniProt P41145); assay: DRUGMATRIX: Opiate kappa (OP2, KOP) radioligand binding (ligand: [3H] Diprenorphine); type: cell membranes, HEK293, Membrane; conditions: hek293; Not Active = under 50% inhibition at 10 µM
Chain of Kappa-type opioid receptor (P41145 whole entry): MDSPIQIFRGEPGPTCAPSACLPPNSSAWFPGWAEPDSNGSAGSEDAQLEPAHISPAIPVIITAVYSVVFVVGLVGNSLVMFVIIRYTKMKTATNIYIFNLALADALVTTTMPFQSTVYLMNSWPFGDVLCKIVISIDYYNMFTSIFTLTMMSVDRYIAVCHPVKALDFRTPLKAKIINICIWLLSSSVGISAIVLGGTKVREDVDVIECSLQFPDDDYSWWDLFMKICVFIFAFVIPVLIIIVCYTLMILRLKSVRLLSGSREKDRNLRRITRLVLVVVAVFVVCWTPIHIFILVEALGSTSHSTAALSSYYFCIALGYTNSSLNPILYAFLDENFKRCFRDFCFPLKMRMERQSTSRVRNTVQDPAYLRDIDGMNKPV

[8] = target: T4, Angiotensin-converting enzyme (Oryctolagus cuniculus, UniProt P12822); type: tissue-based, Lung
T4 sequence (P12822 whole entry): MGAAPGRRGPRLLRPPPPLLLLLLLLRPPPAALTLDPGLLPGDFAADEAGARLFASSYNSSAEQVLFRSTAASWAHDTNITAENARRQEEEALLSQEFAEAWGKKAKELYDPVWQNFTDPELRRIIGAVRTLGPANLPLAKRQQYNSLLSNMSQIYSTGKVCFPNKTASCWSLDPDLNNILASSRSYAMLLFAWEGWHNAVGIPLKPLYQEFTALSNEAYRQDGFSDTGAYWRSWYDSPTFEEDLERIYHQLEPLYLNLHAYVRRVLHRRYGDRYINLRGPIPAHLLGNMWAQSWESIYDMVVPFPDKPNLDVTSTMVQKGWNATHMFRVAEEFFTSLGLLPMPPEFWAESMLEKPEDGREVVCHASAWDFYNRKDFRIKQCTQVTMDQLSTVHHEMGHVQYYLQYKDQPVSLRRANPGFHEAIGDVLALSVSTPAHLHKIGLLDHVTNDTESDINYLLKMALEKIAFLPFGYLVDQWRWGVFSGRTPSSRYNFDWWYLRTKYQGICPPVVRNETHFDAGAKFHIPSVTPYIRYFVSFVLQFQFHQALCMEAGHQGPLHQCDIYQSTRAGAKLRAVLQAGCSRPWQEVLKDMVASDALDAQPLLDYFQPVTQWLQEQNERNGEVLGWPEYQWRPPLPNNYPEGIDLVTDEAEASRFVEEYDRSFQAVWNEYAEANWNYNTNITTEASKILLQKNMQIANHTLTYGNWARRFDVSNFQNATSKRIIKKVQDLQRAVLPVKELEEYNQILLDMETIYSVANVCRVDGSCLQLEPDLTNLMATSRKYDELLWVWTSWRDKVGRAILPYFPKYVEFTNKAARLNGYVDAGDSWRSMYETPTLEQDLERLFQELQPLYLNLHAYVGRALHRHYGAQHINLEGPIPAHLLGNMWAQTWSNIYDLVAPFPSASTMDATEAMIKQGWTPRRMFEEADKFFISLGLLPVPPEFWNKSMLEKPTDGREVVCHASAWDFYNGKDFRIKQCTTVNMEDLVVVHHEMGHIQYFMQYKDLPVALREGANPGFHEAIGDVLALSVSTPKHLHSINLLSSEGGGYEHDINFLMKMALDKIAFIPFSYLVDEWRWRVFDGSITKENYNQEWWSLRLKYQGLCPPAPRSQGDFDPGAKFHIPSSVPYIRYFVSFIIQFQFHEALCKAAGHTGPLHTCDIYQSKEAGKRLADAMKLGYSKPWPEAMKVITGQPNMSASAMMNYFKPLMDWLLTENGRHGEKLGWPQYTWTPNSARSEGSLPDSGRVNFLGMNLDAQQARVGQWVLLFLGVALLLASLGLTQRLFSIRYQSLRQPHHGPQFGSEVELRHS

[9] = target: Acetylcholinesterase (Homo sapiens, UniProt P22303); assay: DRUGMATRIX: Acetylcholinesterase enzyme inhibition (substrate: acetylthiocholine); type: cell-based, HEK293; conditions: hek293; Not Active = under 50% inhibition at 10 µM
Chain of Acetylcholinesterase (P22303 whole entry): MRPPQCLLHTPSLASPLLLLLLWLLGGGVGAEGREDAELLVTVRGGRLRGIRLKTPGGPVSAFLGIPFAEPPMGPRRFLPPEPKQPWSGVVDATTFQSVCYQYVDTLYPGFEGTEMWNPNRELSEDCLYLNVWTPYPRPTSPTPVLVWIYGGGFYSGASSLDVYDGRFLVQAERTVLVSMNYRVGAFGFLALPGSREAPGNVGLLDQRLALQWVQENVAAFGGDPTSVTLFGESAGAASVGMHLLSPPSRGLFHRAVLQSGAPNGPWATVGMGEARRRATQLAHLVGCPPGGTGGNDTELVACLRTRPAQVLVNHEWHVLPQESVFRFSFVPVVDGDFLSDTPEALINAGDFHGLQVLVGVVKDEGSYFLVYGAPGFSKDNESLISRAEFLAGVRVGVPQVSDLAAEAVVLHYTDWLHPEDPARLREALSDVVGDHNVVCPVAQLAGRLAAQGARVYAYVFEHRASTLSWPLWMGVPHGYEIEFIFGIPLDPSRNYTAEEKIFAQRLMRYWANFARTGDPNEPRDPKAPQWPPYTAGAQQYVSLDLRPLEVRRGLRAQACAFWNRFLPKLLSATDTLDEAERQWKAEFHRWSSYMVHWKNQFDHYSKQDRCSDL

Compound | IC50 [1] | IC50 [2] | Ki [2] | IC50 [3] | IC50 [4] | IC50 [5] | IC50 [6] | IC50 [7] | IC50 [8] | IC50 [9] | IC50 ([2]; read-out: IC50) | Ki ([2]; read-out: Ki)
CO[C@H]1/C=C/O[C@@]2(C)Oc3c(C)c(O)c4c(c3C2=O)C2=NC3(CCN(CC(C)C)CC3)NC2=C(NC(=O)/C(C)=C\C=C\[C@H](C)[C@H](O)[C@@H](C)[C@@H](O)[C@@H](C)[C@H](OC(C)=O)[C@@H]1C)C4=O [RIFABUTIN] | Not Active | Not Active | Not Active | Not Active | Not Active | Not Active | Not Active | Not Active | Not Active | Not Active |  | 
CC(C)CC(N(C)C)C1(c2ccc(Cl)cc2)CCC1 (stereo not given) [SIBUTRAMINE] | Not Active | Not Active | Not Active | Not Active | Not Active | Not Active | Not Active | Not Active | Not Active | Not Active |  | 
[H]/N=C(/N)N[C@H]1[C@H](O)[C@@H](O)[C@H](O[C@@H]2O[C@@H](C)[C@](O)(C=O)[C@H]2O[C@@H]2O[C@@H](CO)[C@H](O)[C@@H](O)[C@@H]2NC)[C@@H](N/C(N)=N\[H])[C@@H]1O [STREPTOMYCIN] | Not Active | Not Active | Not Active | Not Active | Not Active | Not Active | Not Active | Not Active | Not Active | Not Active |  | 
COc1cc(NS(=O)(=O)c2ccc(N)cc2)nc(OC)n1 [SULFADIMETHOXINE] | Not Active | Not Active | Not Active | Not Active | Not Active | Not Active | Not Active | Not Active | Not Active | Not Active |  | 
Cc1cc(C)nc(NS(=O)(=O)c2ccc(N)cc2)n1 [SULFAMETHAZINE] | Not Active | Not Active | Not Active | Not Active | Not Active | Not Active | Not Active | Not Active | Not Active | Not Active |  | 
C[C@]1(Cn2ccnn2)[C@H](C(=O)O)N2C(=O)C[C@H]2S1(=O)=O [TAZOBACTAM] | Not Active | Not Active | Not Active | Not Active | Not Active | Not Active | Not Active | Not Active | Not Active | Not Active |  | 
CN1C(C(=O)Nc2ccccn2)=C(O)c2sccc2S1(=O)=O [TENOXICAM] | Not Active | Not Active | Not Active | Not Active | Not Active | Not Active | Not Active | Not Active | Not Active | Not Active |  | 
CC(C)(C)c1ccc(C(O)CCCN2CCC(C(O)(c3ccccc3)c3ccccc3)CC2)cc1 (stereo not given) [TERFENADINE] | Not Active |  |  | Not Active | Not Active | Not Active | Not Active | Not Active | Not Active | Not Active | 0.779 µM | 0.501 µM
O=C1CCC(N2C(=O)c3ccccc3C2=O)C(=O)N1 (stereo not given) [THALIDOMIDE] | Not Active | Not Active | Not Active | Not Active | Not Active | Not Active | Not Active | Not Active | Not Active | Not Active |  | 
Cc1cccc(Nc2ccncc2S(=O)(=O)NC(=O)NC(C)C)c1 [TORSEMIDE] | Not Active | Not Active | Not Active | Not Active | Not Active | Not Active | Not Active | Not Active | Not Active | Not Active |  | 
CC(C)C[C@H](NC(=O)[C@@H](O)[C@H](N)Cc1ccccc1)C(=O)O [UBENIMEX] | Not Active | Not Active | Not Active | Not Active | Not Active | Not Active | Not Active | Not Active | Not Active | Not Active |  | 
Cc1onc(-c2ccccc2)c1-c1ccc(S(N)(=O)=O)cc1 [VALDECOXIB] | Not Active | Not Active | Not Active | Not Active | Not Active | Not Active | Not Active | Not Active | Not Active | Not Active |  | 
CC[C@]1(O)C[C@@H]2CN(CCc3c([nH]c4ccccc34)[C@@](C(=O)OC)(c3cc4c(cc3OC)N(C)[C@H]3[C@@](O)(C(=O)OC)[C@H](OC(C)=O)[C@]5(CC)C=CCN6CC[C@]43[C@@H]65)C2)C1 [VINBLASTINE] | Not Active | Not Active | Not Active | Not Active | Not Active | Not Active | Not Active | Not Active | Not Active | Not Active |  | 
C[C@@H](N)[C@H]1CC[C@H](C(=O)Nc2ccncc2)CC1 [Y-27632] | Not Active | Not Active | Not Active | Not Active | Not Active | Not Active | Not Active | Not Active | Not Active | Not Active |  | 
[Cl-].[Cl-].[Zn+2] [ZINC CHLORIDE] | Not Active | Not Active | Not Active | Not Active | Not Active | Not Active | Not Active | Not Active | Not Active | Not Active |  | 
